As usually defined, the IC50 is the concentration that inhibits the measured activity by half.

Each structure is given as a SMILES string. Where only a bound is given, the exact number is not on record here.

The target in the experiment is T1, human recombinant full-length fatty acid synthase (FASN) (Homo sapiens, UniProt P49327).
T1 construct: 40 nM human recombinant full-length fatty acid synthase (produced in-house in SF9 cells); made in house; host or cells: SF9 insect cells
T1 sequence (P49327 whole entry): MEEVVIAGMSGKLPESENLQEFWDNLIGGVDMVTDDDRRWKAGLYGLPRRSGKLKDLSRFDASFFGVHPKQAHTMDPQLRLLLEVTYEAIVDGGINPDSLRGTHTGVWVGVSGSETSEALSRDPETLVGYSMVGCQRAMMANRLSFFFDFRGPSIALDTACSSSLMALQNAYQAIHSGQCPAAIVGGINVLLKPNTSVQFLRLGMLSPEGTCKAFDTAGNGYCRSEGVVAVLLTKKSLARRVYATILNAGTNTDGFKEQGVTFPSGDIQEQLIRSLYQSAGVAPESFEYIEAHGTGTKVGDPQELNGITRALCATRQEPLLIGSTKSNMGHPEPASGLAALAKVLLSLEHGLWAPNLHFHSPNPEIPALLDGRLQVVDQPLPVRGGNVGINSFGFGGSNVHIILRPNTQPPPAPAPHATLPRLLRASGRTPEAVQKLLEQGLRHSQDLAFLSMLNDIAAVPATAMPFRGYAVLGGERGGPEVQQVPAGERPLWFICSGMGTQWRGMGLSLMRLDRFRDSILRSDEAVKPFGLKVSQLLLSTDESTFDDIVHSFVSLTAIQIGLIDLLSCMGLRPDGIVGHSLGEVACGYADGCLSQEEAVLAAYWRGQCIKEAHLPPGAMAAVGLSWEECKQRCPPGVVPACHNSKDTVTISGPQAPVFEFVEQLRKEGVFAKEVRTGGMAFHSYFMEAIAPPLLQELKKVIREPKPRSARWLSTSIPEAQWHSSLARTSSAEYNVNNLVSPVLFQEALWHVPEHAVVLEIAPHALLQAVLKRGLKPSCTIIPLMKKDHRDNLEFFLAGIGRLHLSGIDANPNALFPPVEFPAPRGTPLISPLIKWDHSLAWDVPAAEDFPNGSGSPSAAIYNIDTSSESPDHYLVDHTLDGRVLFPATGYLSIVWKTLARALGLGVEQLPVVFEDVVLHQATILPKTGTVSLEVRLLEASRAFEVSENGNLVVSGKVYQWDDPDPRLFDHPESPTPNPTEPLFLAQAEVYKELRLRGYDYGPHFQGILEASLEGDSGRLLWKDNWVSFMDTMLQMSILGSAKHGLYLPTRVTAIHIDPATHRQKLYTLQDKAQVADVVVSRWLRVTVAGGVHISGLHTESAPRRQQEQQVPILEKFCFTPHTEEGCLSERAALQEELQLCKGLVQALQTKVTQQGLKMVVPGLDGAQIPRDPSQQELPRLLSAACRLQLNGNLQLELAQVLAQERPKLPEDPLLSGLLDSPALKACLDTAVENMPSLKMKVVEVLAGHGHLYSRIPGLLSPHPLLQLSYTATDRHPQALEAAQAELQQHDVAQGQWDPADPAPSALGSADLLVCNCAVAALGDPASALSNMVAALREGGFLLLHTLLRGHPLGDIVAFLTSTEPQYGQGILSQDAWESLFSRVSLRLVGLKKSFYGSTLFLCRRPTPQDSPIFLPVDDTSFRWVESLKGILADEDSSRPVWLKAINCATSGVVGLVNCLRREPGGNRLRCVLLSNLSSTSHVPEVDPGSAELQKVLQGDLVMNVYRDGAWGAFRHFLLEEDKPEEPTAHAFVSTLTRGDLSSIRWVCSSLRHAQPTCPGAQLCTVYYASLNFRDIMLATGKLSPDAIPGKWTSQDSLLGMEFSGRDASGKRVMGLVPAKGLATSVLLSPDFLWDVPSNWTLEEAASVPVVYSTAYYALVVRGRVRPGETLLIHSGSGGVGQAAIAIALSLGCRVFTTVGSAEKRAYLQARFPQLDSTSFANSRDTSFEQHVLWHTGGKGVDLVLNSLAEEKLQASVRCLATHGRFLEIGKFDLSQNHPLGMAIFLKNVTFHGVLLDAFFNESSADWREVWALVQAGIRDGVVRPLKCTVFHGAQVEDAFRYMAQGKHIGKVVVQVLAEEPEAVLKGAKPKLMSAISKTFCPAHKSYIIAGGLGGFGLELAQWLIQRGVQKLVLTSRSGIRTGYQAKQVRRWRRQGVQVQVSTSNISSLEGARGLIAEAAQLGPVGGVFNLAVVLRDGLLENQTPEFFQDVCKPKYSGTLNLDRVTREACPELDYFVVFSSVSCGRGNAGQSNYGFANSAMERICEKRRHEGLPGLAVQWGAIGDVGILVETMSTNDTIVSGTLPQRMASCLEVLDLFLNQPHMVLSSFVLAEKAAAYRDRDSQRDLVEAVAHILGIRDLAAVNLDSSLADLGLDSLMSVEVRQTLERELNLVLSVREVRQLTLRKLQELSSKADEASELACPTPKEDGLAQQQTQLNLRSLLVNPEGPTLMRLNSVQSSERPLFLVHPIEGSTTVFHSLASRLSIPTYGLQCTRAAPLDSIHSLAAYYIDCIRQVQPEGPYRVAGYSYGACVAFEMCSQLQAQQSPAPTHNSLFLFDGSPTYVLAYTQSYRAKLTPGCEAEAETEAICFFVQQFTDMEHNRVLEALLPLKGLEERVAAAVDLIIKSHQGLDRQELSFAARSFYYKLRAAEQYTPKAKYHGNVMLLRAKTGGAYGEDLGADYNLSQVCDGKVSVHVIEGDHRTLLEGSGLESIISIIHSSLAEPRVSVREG
As to the kind of experiment: Biochemical activity testing of human fatty acid synthase FASN (NADPH fluorescence intensity enzyme assay). The conditions noted are these: human recombinant FASN, enzyme assay. An excerpt:
Biochemical Activity Testing of Human Fatty Acid Synthase FASN
Fatty acid synthase FASN is a multifunctional enzyme with seven catalytic activities thereby synthesising long chain fatty acids especially palmitoyl-CoA in the presence of co-factor NADPH starting from the substrates acetyl-CoA and malonyl-CoA. The reductive synthesis is realized by the oxidation of NADPH to NADP. Since NADPH has a high fluorescence intensity quantum yield compared to NADP with excitation at 340 nm and emission at 460 nm, the reaction can be monitored via the decrease in fluorescence intensity. The biochemical FASN activity testing was performed as 384 well two-time-point kinetic fluorescence intensity assay format in Greiner low volume medium binding 384-well black microtiter plates in a total assay volume of 8 μl and was used for high throughput screen. In each well 3 μl 40 nM human recombinant full-length fatty acid synthase (produced in-house in SF9 cells) were dispensed in the following assay buffer: 50 mM potassium phosphate buffer pH 7.0, 0.005% (w/v) BSA, 2 mM Glutathione, 0.02% Tween-20. Then 2 μl of 200 μM NADPH in assay buffer were added, followed by the addition of the test compounds in 10 dilution concentrations starting with 30 μM (final concentration) to get a final DMSO content of 1% (v/v). The mixture was incubated for at least 15 min at room temperature. After the pre-incubation the enzymatic reaction was started by the addition of 2 μl substrate solution (80 μM acetyl-CoA, 240 μM malonyl-CoA). A first fluorescence intensity measurement (time point one) was performed with an Envision multimode reader (Perkin Elmer LAS Germany GmbH) at excitation wavelength 340 nm (lamp mode) and emission wavelength 460 nm. The reaction was incubated for 30 minutes at room temperature. After this the fluorescence intensity was measured again in the Envision using the same parameters as described above (second time point measurement). The data were analysed by subtracting the first time point measurement value from the second time point measurement value (after the enzymatic reaction). The differences of the emission signals were determined. These reflect directly the conversion rate of NADPH. The full value used was the inhibitor-free reaction. A pharmacological zero value was used like GSK837149A (Sigma-Aldrich) in a final concentration of 5-10 μM. The inhibitory values (IC50) were determined using either the program Symyx Assay Explorer® or Condosseo® from GeneData.
In the case of `CCNC(=O)[C@H]1CC[C@@H](n2cnnc2-c2ccc(-c3ccc(C#N)cc3)cc2)C1` [Compound A32, (1S,3R)-3-[3-(4′-cyano-biphenyl-4-yl)-[1,2,4]triazol-4-yl]-cyclopentanecarboxylic acid ethylamide], the IC50 was below 300 nM.

With `CCNC(=O)[C@H]1CC[C@@H](n2cnnc2-c2ccc(-c3nc4ccccc4s3)cc2)C1` [Compound A33, (1S,3R)-3-[3-(4-benzothiazol-2-yl-phenyl)-[1,2,4]triazol-4-yl]-cyclopentanecarboxylic acid ethylamide], the IC50 was below 300 nM.

For `CCNC(=O)[C@H]1CC[C@@H](n2cnnc2-c2ccc(-c3cccc4[nH]ncc34)cc2)C1` [Compound A35, (1S,3R)-3-{3-[4-(1H-indazol-4-yl)-phenyl]-[1,2,4]triazol-4-yl}-cyclopentanecarboxylic acid ethylamide], the IC50 was below 300 nM.

For the compound `CCC(=O)N[C@H]1CC[C@@H](n2cnnc2-c2ccc(-c3nc4ccccc4o3)cc2)C1` [Compound A37, N-{(1S,3R)-3-[3-(4-benzoxazol-2-yl-phenyl)-[1,2,4]triazol-4-yl]-cyclopentyl}-propionamide], the IC50 was below 300 nM.

With `CCC(=O)N[C@H]1CC[C@@H](n2cnnc2-c2ccc(-c3ccc(Cl)cc3)cc2)C1` [Compound A39, N-{(1S,3R)-3-[3-(4′-chloro-biphenyl-4-yl)-[1,2,4]triazol-4-yl]-cyclopentyl}-propionamide], the 50% inhibitory concentration (IC50) was below 300 nM.

As to `CCC(=O)N[C@H]1CC[C@@H](n2cnnc2-c2ccc(-c3ccc(C#N)cc3)cc2)C1` [Compound A40, N-{(1S,3R)-3-[3-(4′-cyano-biphenyl-4-yl)-[1,2,4]triazol-4-yl]-cyclopentyl}-propionamide], the IC50 was below 300 nM.

Turning to `CCC(=O)N[C@H]1CC[C@@H](n2cnnc2-c2ccc(-c3cccc4[nH]ncc34)cc2)C1` [Compound A42, N-((1S,3R)-3-{3-[4-(1H-indazol-4-yl)-phenyl]-[1,2,4]triazol-4-yl}-cyclopentyl)-propionamide], the half-maximal inhibitory concentration (IC50) was below 300 nM.

For `CCC(=O)N[C@H]1CC[C@@H](n2cnnc2-c2ccc(-c3ccc4ncsc4c3)cc2)C1` [Compound A43, N-{(1S,3R)-3-[3-(4-benzothiazol-6-yl-phenyl)-[1,2,4]triazol-4-yl]-cyclopentyl}-propionamide], the IC50 was below 300 nM.

For the compound `CCC(=O)N[C@H]1CC[C@@H](n2cnnc2-c2ccc(-c3ccc4cc[nH]c4c3)cc2)C1` [Compound A44, N-((1S,3R)-3-{3-[4-(1H-indol-6-yl)-phenyl]-[1,2,4]triazol-4-yl}-cyclopentyl)-propionamide], the IC50 is below 300 nM.

For the compound `CCC(=O)N[C@H]1CC[C@@H](n2nncc2-c2ccc(-c3ccc(C#N)cc3)cc2)C1` [Compound A58, N-{(1S,3R)-3-[5-(4′-Cyano-biphenyl-4-yl)-[1,2,3]triazol-1-yl]-cyclopentyl}-propionamide], the IC50 is below 300 nM.

`CCC(=O)N[C@H]1CC[C@@H](n2nncc2-c2ccc(-c3ccc4cc[nH]c4c3)cc2)C1` [Compound A59, N-((1S,3R)-3-{5-[4-(1H-Indol-6-yl)-phenyl]-[1,2,3]triazol-1-yl}-cyclopentyl)-propionamide]: the IC50 was below 300 nM.

For `CCC(=O)N[C@H]1CC[C@@H](n2nncc2-c2ccc(-c3ccc4ncsc4c3)cc2)C1` [Compound A60, N-{(1S,3R)-3-[5-(4-Benzothiazol-6-yl-phenyl)-[1,2,3]triazol-1-yl]-cyclopentyl}-propionamide], the half-inhibitory concentration (IC50) was below 300 nM.

For `CCC(=O)N[C@H]1CC[C@@H](n2nncc2-c2ccc(-c3ccc4c(cnn4C)c3)cc2)C1` [Compound A61, N-((1S,3R)-3-{5-[4-(1-Methyl-1H-indazol-5-yl)-phenyl]-[1,2,3]triazol-1-yl}-cyclopentyl)-propionamide], the IC50 is below 300 nM.

As to `CCC(=O)N[C@H]1CC[C@@H](n2nncc2-c2ccc(-c3ccc(C#N)cc3F)cc2)C1` [Compound A62, N-{(1S,3R)-3-[5-(4′-Cyano-2′-fluoro-biphenyl-4-yl)-[1,2,3]triazol-1-yl]-cyclopentyl}-propionamide], the IC50 was below 300 nM.

Regarding `CCC(=O)N[C@H]1CC[C@@H](n2nncc2-c2ccc(-c3ccc4cnn(C)c4c3)cc2)C1` [Compound A63, N-((1S,3R)-3-{5-[4-(1-Methyl-1H-indazol-6-yl)-phenyl]-[1,2,3]triazol-1-yl}-cyclopentyl)-propionamide], the half-inhibitory concentration (IC50) is below 300 nM.

Consider `CCC(=O)N[C@H]1CC[C@@H](n2nncc2-c2ccc(-c3ccc(-c4cnn(C)c4)cc3)cc2)C1` [Compound A64, N-((1S,3R)-3-{5-[4′-(1-Methyl-1H-pyrazol-4-yl)-biphenyl-4-yl]-[1,2,3]triazol-1-yl}-cyclopentyl)-propionamide], for which the IC50 is below 300 nM.

Consider `CCNC(=O)[C@H]1CC[C@@H](n2cnnc2-c2ccc(-c3ccc4ncsc4c3)cc2)C1` [Compound A65, (1S,3R)-3-[3-(4-Benzothiazol-6-yl-phenyl)-[1,2,4]triazol-4-yl]-cyclopentanecarboxylic acid ethylamide], for which the concentration for half-maximal inhibition (IC50) was below 300 nM.

In the case of `O=C(N[C@H]1CC[C@@H](n2nncc2-c2ccc(-c3nc4ccccc4o3)cc2)C1)C1CC1` [Compound A66, Cyclopropanecarboxylic acid {(1S,3R)-3-[5-(4-benzooxazol-2-yl-phenyl)-[1,2,3]triazol-1-yl]-cyclopentyl}-amide], the IC50 was below 300 nM.

Turning to `O=C(CC1CCCC1)N[C@H]1CC[C@@H](n2nncc2-c2ccc(-c3nc4ccccc4o3)cc2)C1` [Compound A67, N-{(1S,3R)-3-[5-(4-Benzoxazol-2-yl-phenyl)-[1,2,3]triazol-1-yl]-cyclopentyl}-2-cyclopentyl-acetamide], the IC50 was 300 to 3000 nM.

As to `O=C(N[C@H]1CC[C@@H](n2nncc2-c2ccc(-c3nc4ccccc4o3)cc2)C1)[C@H]1CCCO1` [Compound A68, (R)-Tetrahydro-furan-2-carboxylic acid {(1S,3R)-3-[5-(4-benzooxazol-2-yl-phenyl)-[1,2,3]triazol-1-yl]-cyclopentyl}-amide], the IC50 is 300 to 3000 nM.

As to `O=C(N[C@H]1CC[C@@H](n2nncc2-c2ccc(-c3nc4ccccc4o3)cc2)C1)[C@@H]1CCCO1` [Compound A69, (S)-Tetrahydro-furan-2-carboxylic acid {(1S,3R)-3-[5-(4-benzooxazol-2-yl-phenyl)-[1,2,3]triazol-1-yl]-cyclopentyl}-amide], the half-maximal inhibitory concentration (IC50) was below 300 nM.

Turning to `CCC(=O)N[C@H]1CC[C@@H](n2nncc2-c2ccc(-c3cnc4ccccc4c3)cc2)C1` [Compound A70, N-{(1S,3R)-3-[5-(4-Quinolin-3-yl-phenyl)-[1,2,3]triazol-1-yl]-cyclopentyl}-propionamide], the half-inhibitory concentration (IC50) is below 300 nM.

As for `CCC(=O)N[C@H]1CC[C@@H](n2nncc2-c2ccc(-c3ccc4c(ccn4C)c3)cc2)C1` [Compound A71, N-((1S,3R)-3-{5-[4-(1-Methyl-1H-indol-5-yl)-phenyl]-[1,2,3]triazol-1-yl}-cyclopentyl)-propionamide], the IC50 was below 300 nM.

As for `CCC(=O)N[C@H]1CC[C@@H](n2nncc2-c2ccc(-c3ccc4cn[nH]c4c3)cc2)C1` [Compound A72, N-((1S,3R)-3-{5-[4-(1H-Indazol-6-yl)-phenyl]-[1,2,3]triazol-1-yl}-cyclopentyl)-propionamide], the IC50 is below 300 nM.

For the origin of these results see US9718785B2, “1,3-Disubstituted cyclopentane derivatives” (MERCK PATENT GMBH, priority 2013, dated 2017).
